In general, Ki refers to the equilibrium dissociation constant of an inhibitor or competing ligand from its target.

In assay [1] the target is human recombinant sGC enzyme (Homo sapiens (Human), UniProt Q02108+Q02153). As to the kind of experiment: Size Exclusion Chromatography (SEC) competition binding assay using [3H] Ex-77B as the radioligand. Conditions: [3H] Ex-77B radioligand, 24 hours at 37° C. The method, boiled down:
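Recombinant human sGC binding measured by competition against tritiated Ex-77B radioligand, with non-specific binding defined by 1 μM unlabeled Ex-77B.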
(In gel filtration, larger molecules generally elute earlier.)

The target of another assay is sGC α1/β1 heterodimer (Homo sapiens (Human), UniProt Q02108+Q02153). Description: Cell-based sGC functional assay (cyclic GMP assay for sGC activator: CASA assay). The arrangement: % Activation: concentration or dose not given beside the values. The settings on record: CHO-K1/sGC cells; for EC50: inflection point, 4P fit, read-out: IP; for Emax: CHO-K1, activity expressed as percentage of compound A (standard), read-out: % Activation. Put shortly: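 CHO-K1 cells stably expressing sGC α1/β1 were pre-incubated with or without 1 μM DETA-NO (30 min, 25 °C), then exposed to compounds for 1 hr at 37 °C with 0.5 mM IBMX. Intracellular cGMP was read by HTRF and expressed as a percentage of a reference heme-dependent activator's maximum.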

With `CC1(c2ccc(CCc3nn[nH]n3)cn2)C(=O)Nc2nc(-c3nn(Cc4ccccc4F)c4cc(Cl)ccc34)nc(N)c21` (single isomer, unassigned) [Example 247A, 5-{5-[2-(2H-tetrazol-5-yl)ethyl]pyridin-2-yl}-4-amino-2-[6-chloro-1-(2-fluorobenzyl)-1H-indazol-3-yl]-5-methyl-5,7-dihydro-6H-pyrrolo[2,3-d] pyrimidin-6-one], in assay [1], the Ki was determined as 0.242 nM. The EC50 on sGC α1/β1 heterodimer was 4020 nM.

In the case of `CC1(c2cccc(-c3nn[nH]n3)c2)C(=O)Nc2nc(-c3nn(CCC(F)(F)C(F)(F)F)c4ncccc34)nc(N)c21` (single isomer, unassigned) [Example 252B, 4-amino-5-methyl-2-[1-(3,3,4,4,4-pentafluorobutyl)-1H-pyrazolo[3,4-b]pyridin-3-yl]-5-[3-(2H-tetrazol-5-yl)phenyl]-5,7-dihydro-6H-pyrrolo[2,3-d] pyrimidin-6-one], the Ki in assay [1] amounted to 0.292 nM. The EC50 at sGC α1/β1 heterodimer is 2460 nM.

For `CC1(c2cccc(-c3nn[nH]n3)n2)C(=O)Nc2nc(-c3nn(Cc4ccccc4F)c4cc(Cl)ccc34)nc(N)c21` (single isomer, unassigned) [Example 253A, 5-[6-(2H-tetrazol-5-yl)pyridin-2-yl]-4-amino-2-[6-chloro-1-(2-fluorobenzyl)-1H-indazol-3-yl]-5-methyl-5,7-dihydro-6H-pyrrolo[2,3-d] pyrimidin-6-one], the Ki in assay [1] is 0.146 nM. In addition, the EC50 on sGC α1/β1 heterodimer turned out to be 3630 nM.

For `CC1(c2ccc(CCS(=O)(=O)O)cc2)C(=O)Nc2nc(-c3nn(Cc4ccccc4F)c4cc(Cl)ccc34)nc(N)c21` (single isomer, unassigned) [Example 258B, 2-(4-{4-Amino-2-[6-chloro-1-(2-fluorobenzyl)-1H-indazol-3-yl]-5-methyl-6-oxo-6,7-dihydro-5H-pyrrolo[2,3-d]pyrimidin-5-yl}phenyl)ethanesulfonic acid], the Ki in assay [1] is 0.08 nM. In addition, the EC50 at sGC α1/β1 heterodimer came to 1730 nM.

With `CC1(N2CCC(CCC(=O)O)C2)C(=O)Nc2nc(-c3nn(Cc4ccccc4F)c4cc(Cl)ccc34)nc(N)c21` (single isomer, unassigned) [Example 261C, 3-[1-{4-Amino-2-[6-chloro-1-(2-fluorobenzyl)-1H-indazol-3-yl]-5-methyl-6-oxo-6,7-dihydro-5H-pyrrolo[2,3-d]pyrimidin-5-yl}pyrrolidin-3-yl]propanoic acid], in assay [1], the Ki was determined as 0.074 nM. The EC50 on sGC α1/β1 heterodimer is 293 nM.

In the case of `CC1(N2CCC(CCC(=O)O)C2)C(=O)Nc2nc(-c3nn(Cc4ccccc4F)c4cc(Cl)ccc34)nc(N)c21` (single isomer, unassigned) [Example 261D, 3-[1-{4-Amino-2-[6-chloro-1-(2-fluorobenzyl)-1H-indazol-3-yl]-5-methyl-6-oxo-6,7-dihydro-5H-pyrrolo[2,3-d]pyrimidin-5-yl}pyrrolidin-3-yl]propanoic acid], in assay [1], the Ki worked out at 0.187 nM. In addition, on sGC α1/β1 heterodimer (activity expressed as percentage of compound A (standard)), the “% Activation” value amounted to 103.8%. In addition, the EC50 on sGC α1/β1 heterodimer came out at 444 nM.

Take `CC(C)(Cc1coc(C2(C)C(=O)Nc3nc(-c4nn(Cc5ccccc5F)c5ncccc45)nc(N)c32)n1)C(=O)O` (stereo not shown) [Example 1A, 3-(2-{4-Amino-2-[1-(2-fluorobenzyl)-1H-pyrazolo[3,4-b]pyridin-3-yl]-5-methyl-6-oxo-6,7-dihydro-5H-pyrrolo[2,3-d]pyrimidin-5-yl}oxazol-4-yl)-2,2-dimethylpropanoic acid]: the Ki in assay [1] was found to be 0.047 nM. Also, at sGC α1/β1 heterodimer, the Emax was found to be 120% and the EC50 is 409 nM.

Regarding `CC1(c2ccc(CCC(=O)O)c(Br)c2)C(=O)Nc2nc(-c3nn(CCC(F)(F)C(F)(F)F)c4cc(Cl)ccc34)nc(N)c21` (stereo not shown) [Example 4B, 3-(4-{4-amino-2-[6-chloro-1-(3,3,4,4,4-pentafluoro-butyl)-1H-indazol-3-yl]-5-methyl-6-oxo-6,7-dihydro-5H-pyrrolo[2,3-d]pyrimidin-5-yl}-2-bromophenyl)propanoic acid], the Ki in assay [1] amounted to 0.391 nM. Besides, at sGC α1/β1 heterodimer, the Emax was determined as 126% and the EC50 is 294 nM.

Take `C[C@@]1(c2ccc(CCC(=O)O)cc2)C(=O)Nc2nc(-c3nn(CCCC(F)(F)F)c4ncccc34)nc(N)c21` [Example 15B, (S)-3-(4-{4-amino-5-methyl-6-oxo-2-[1-(4,4,4-trifluorobutyl)-1H-pyrazolo[3,4-b]pyridin-3-yl]-6,7-dihydro-5H-pyrrolo[2,3-d]pyrimidin-5-yl}phenyl)propanoic acid]: the Ki in assay [1] is 0.455 nM. In addition, on sGC α1/β1 heterodimer, the Emax came out at 95% and the EC50 amounted to 1320 nM.

In the case of `CC(C)(Cc1ccc(C2(C)C(=O)Nc3nc(-c4nn(CCCC(F)(F)F)c5ncccc45)nc(N)c32)cc1)C(=O)O` (stereo not shown) [Example 16B, 3-(4-{4-amino-5-methyl-6-oxo-2-[1-(4,4,4-trifluorobutyl)-1H-pyrazolo[3,4-b]pyridin-3-yl]-6,7-dihydro-5H-pyrrolo[2,3-d]pyrimidin-5-yl}phenyl)-2,2-dimethylpropanoic acid], in assay [1], the inhibitory constant (Ki) was found to be 1.14 nM. Further, on sGC α1/β1 heterodimer, the Emax is 96% and the EC50 was found to be 1470 nM.

Consider `CC(Cc1ccc(C2(C)C(=O)Nc3nc(-c4nn(CCCC(F)(F)F)c5ncccc45)nc(N)c32)cc1)C(=O)O` (stereo not shown) [Example 17AB, 3-(4-{4-amino-5-methyl-6-oxo-2-[1-(4,4,4-trifluorobutyl)-1H-pyrazolo[3,4-b]pyridin-3-yl]-6,7-dihydro-5H-pyrrolo[2,3-d]pyrimidin-5-yl}phenyl)-2-methylpropanoic acid], for which the Ki in assay [1] amounted to 0.936 nM. In addition, on sGC α1/β1 heterodimer, the Emax turned out to be 77% and the EC50 was 3780 nM.

In the case of `C[C@@]1(c2ccc(CCC(=O)O)cc2)C(=O)Nc2nc(-c3nn(CCCC(F)(F)F)c4ncc(F)cc34)nc(N)c21` [Example 18B, (S)-3-(4-{4-amino-2-[5-fluoro-1-(4,4,4-trifluorobutyl)-1H-pyrazolo[3,4-b]pyridin-3-yl]-5-methyl-6-oxo-6,7-dihydro-5H-pyrrolo[2,3-d]pyrimidin-5-yl}phenyl)propanoic acid], the Ki in assay [1] came out at 0.92 nM. Also, at sGC α1/β1 heterodimer, the Emax came out at 95% and the EC50 was found to be 2500 nM.

In the case of `C[C@@]1(c2ccc(CCC(=O)O)cc2)C(=O)Nc2nc(-c3nn(CCCC(F)(F)F)c4nc(Cl)ccc34)nc(N)c21` [Example 19B, (S)-3-(4-{4-amino-2-[6-chloro-1-(4,4,4-trifluorobutyl)-1H-pyrazolo[3,4-b]pyridin-3-yl]-5-methyl-6-oxo-6,7-dihydro-5H-pyrrolo[2,3-d]pyrimidin-5-yl}phenyl)propanoic acid], the Ki in assay [1] worked out at 0.286 nM. At sGC α1/β1 heterodimer, the Emax is 89% and the EC50 was 1040 nM.

Take `Cc1ccc2c(-c3nc(N)c4c(n3)NC(=O)[C@@]4(C)c3ccc(CCC(=O)O)cc3)nn(CCCC(F)(F)F)c2n1` [Example 20B, (S)-3-(4-{4-amino-5-methyl-2-[6-methyl-1-(4,4,4-trifluorobutyl)-1H-pyrazolo[3,4-b]pyridin-3-yl]-6-oxo-6,7-dihydro-5H-pyrrolo[2,3-d]pyrimidin-5-yl}phenyl)propanoic acid]: the Ki in assay [1] was 4.49 nM. At sGC α1/β1 heterodimer, the Emax is 88% and the EC50 was determined as 2210 nM.

Regarding `C[C@@]1(c2ccc(CCC(=O)O)cc2)C(=O)Nc2nc(-c3nn(Cc4ccccc4F)c4ncc(F)cc34)nc(N)c21` [Example 23B, (S)-3-(4-{4-amino-2-[5-fluoro-1-(2-fluorobenzyl)-1H-pyrazolo[3,4-b]pyridin-3-yl]-5-methyl-6-oxo-6,7-dihydro-5H-pyrrolo[2,3-d]pyrimidin-5-yl}phenyl)propanoic acid], the Ki in assay [1] was 0.099 nM. Also, on sGC α1/β1 heterodimer, the Emax was found to be 109% and the EC50 was found to be 203 nM.

For `Cc1ccc2c(-c3nc(N)c4c(n3)NC(=O)[C@@]4(C)c3ccc(CCC(=O)O)cc3)nn(Cc3ccc(C)c(F)c3F)c2n1` [Example 25B, (S)-3-(4-{4-amino-2-[1-(2,3-difluoro-4-methylbenzyl)-6-methyl-1H-pyrazolo[3,4-b]pyridin-3-yl]-5-methyl-6-oxo-6,7-dihydro-5H-pyrrolo[2,3-d]pyrimidin-5-yl}phenyl)propanoic acid], the Ki in assay [1] is 0.262 nM. Also, at sGC α1/β1 heterodimer, the Emax came to 147% and the EC50 came to 201 nM.

`CC1(c2cccc(C(=O)O)c2)C(=O)Nc2nc(-c3nn(CCC(F)(F)C(F)(F)F)c4cc(Cl)ccc34)nc(N)c21` (stereo not shown) [Example 26B, 3-{4-amino-2-[6-chloro-1-(3,3,4,4,4-pentafluorobutyl)-1H-indazol-3-yl]-5-methyl-6-oxo-6,7-dihydro-5H-pyrrolo[2,3-d]pyrimidin-5-yl}benzoic acid]: the Ki in assay [1] turned out to be 0.266 nM. On sGC α1/β1 heterodimer, the Emax was 102% and the EC50 was 1920 nM.

For `CC1(c2cn(CC(=O)O)nn2)C(=O)Nc2nc(-c3nn(CCC(F)(F)C(F)(F)F)c4cc(Cl)ccc34)nc(N)c21` (stereo not shown) [Example 28B, (4-{4-amino-2-[6-chloro-1-(3,3,4,4,4-pentafluorobutyl)-1H-indazol-3-yl]-5-methyl-6-oxo-6,7-dihydro-5H-pyrrolo[2,3-d]pyrimidin-5-yl}-1H-1,2,3-triazol-1-yl)acetic acid], the Ki in assay [1] amounted to 0.536 nM. For the same molecule, at sGC α1/β1 heterodimer, the Emax is 105% and the EC50 came to 2170 nM.

Take `CC1(c2cn(C(C)(C)C(=O)O)nn2)C(=O)Nc2nc(-c3nn(CCC(F)(F)C(F)(F)F)c4cc(Cl)ccc34)nc(N)c21` (stereo not shown) [Example 30B, 2-(4-{4-amino-2-[6-chloro-1-(3,3,4,4,4-pentafluorobutyl)-1H-indazol-3-yl]-5-methyl-6-oxo-6,7-dihydro-5H-pyrrolo[2,3-d]pyrimidin-5-yl}-1H-1,2,3-triazol-1-yl)-2-methylpropanoic acid]: in assay [1], the Ki came to 0.56 nM. At sGC α1/β1 heterodimer, the Emax is 93% and the EC50 was 176 nM.
